# Laboratory results as given in PubChem BioAssay (NCI).
#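 Protocol summary: plate cells (96-well), add compound at 5 concentrations, incubate 48 h, interpolate endpoints linearly. GI50 is the concentration that inhibits growth by half. TGI denotes the concentration required for complete inhibition of growth.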
# Key:
# Assay in all cases: growth of human tumour cells (NCI), 48 h
# CCRF-CEM leukemia = system: CCRF-CEM leukemia
# SF-295 CNS = system: SF-295 CNS
# COLO 205 colon = system: COLO 205 colon
# IGROV1 ovarian = system: IGROV1 ovarian
# RPMI-8226 leukemia = system: RPMI-8226 leukemia
# PC-3 prostate = system: PC-3 prostate
# MDA-MB-231 breast = system: MDA-MB-231 breast
# UO-31 renal = system: UO-31 renal
# M14 melanoma = system: M14 melanoma
# MOLT-4 leukemia = system: MOLT-4 leukemia
# MDA-N = system: MDA-N
# KM12 colon = system: KM12 colon
# HOP-62 NSCLC = system: HOP-62 NSCLC
# DU-145 prostate = system: DU-145 prostate
# HCT-15 colon = system: HCT-15 colon
# ACHN renal = system: ACHN renal
# BT-549 breast = system: BT-549 breast
# 786-0 renal = system: 786-0 renal
# UACC-62 melanoma = system: UACC-62 melanoma
# OVCAR-5 ovarian = system: OVCAR-5 ovarian
# SK-MEL-28 melanoma = system: SK-MEL-28 melanoma
# MALME-3M melanoma = system: MALME-3M melanoma
# HS 578T breast = system: HS 578T breast
# SF-539 CNS = system: SF-539 CNS
# OVCAR-4 ovarian = system: OVCAR-4 ovarian
# SF-268 CNS = system: SF-268 CNS
# MDA-MB-435 = system: MDA-MB-435
# K-562 leukemia = system: K-562 leukemia
# SNB-19 CNS = system: SNB-19 CNS
# HL-60(TB) leukemia = system: HL-60(TB) leukemia
# SK-OV-3 ovarian = system: SK-OV-3 ovarian
# SNB-75 CNS = system: SNB-75 CNS
# EKVX NSCLC = system: EKVX NSCLC
# HCT-116 colon = system: HCT-116 colon
# OVCAR-8 ovarian = system: OVCAR-8 ovarian
# A498 renal = system: A498 renal
# NCI-H460 lung = system: NCI-H460 lung
# SK-MEL-5 melanoma = system: SK-MEL-5 melanoma
# NCI-H226 lung = system: NCI-H226 lung
# UACC-257 melanoma = system: UACC-257 melanoma
# SW-620 colon = system: SW-620 colon
# HT29 colon = system: HT29 colon
# NCI-H522 lung = system: NCI-H522 lung
# HOP-92 NSCLC = system: HOP-92 NSCLC
# SK-MEL-2 melanoma = system: SK-MEL-2 melanoma
# TK-10 renal = system: TK-10 renal
# NCI-H23 lung = system: NCI-H23 lung
# RXF 393 renal = system: RXF 393 renal
# U251 CNS = system: U251 CNS
# A549 NSCLC = system: A549 NSCLC
# NCI/ADR-RES ovarian = system: NCI/ADR-RES ovarian
# OVCAR-3 ovarian = system: OVCAR-3 ovarian
# T-47D breast = system: T-47D breast
# HCC-2998 colon = system: HCC-2998 colon
# SN12C renal = system: SN12C renal
# MCF7 breast = system: MCF7 breast
# SR leukemia = system: SR leukemia
# LOX IMVI melanoma = system: LOX IMVI melanoma
# CAKI-1 renal = system: CAKI-1 renal
smiles,measurement,setting,value
NCCc1cc(O)c(O)cc1O,TGI,CCRF-CEM leukemia,23.6 µM
same,TGI,SF-295 CNS,49.3 µM
same,TGI,COLO 205 colon,> 72.9 µM
same,TGI,IGROV1 ovarian,38.2 µM
same,TGI,RPMI-8226 leukemia,39.3 µM
same,TGI,PC-3 prostate,> 100 µM
same,TGI,MDA-MB-231 breast,44.6 µM
same,TGI,UO-31 renal,51.2 µM
same,TGI,M14 melanoma,92.5 µM
same,TGI,MOLT-4 leukemia,70.7 µM
same,TGI,MDA-N,47 µM
same,TGI,KM12 colon,58.5 µM
same,TGI,HOP-62 NSCLC,45 µM
same,TGI,DU-145 prostate,32.4 µM
same,TGI,HCT-15 colon,44.5 µM
same,TGI,ACHN renal,60.1 µM
same,TGI,BT-549 breast,70.6 µM
same,TGI,786-0 renal,> 69.1 µM
same,TGI,UACC-62 melanoma,74.9 µM
same,TGI,OVCAR-5 ovarian,61.3 µM
same,TGI,SK-MEL-28 melanoma,97.5 µM
same,TGI,MALME-3M melanoma,> 74.1 µM
same,GI50,HS 578T breast,34.4 µM
same,TGI,HS 578T breast,> 100 µM
same,TGI,SF-539 CNS,44.3 µM
same,GI50,OVCAR-4 ovarian,12.3 µM
same,TGI,OVCAR-4 ovarian,25.6 µM
same,TGI,SF-268 CNS,58.5 µM
same,TGI,MDA-MB-435,32.7 µM
same,TGI,K-562 leukemia,> 80.5 µM
same,TGI,SNB-19 CNS,> 100 µM
same,GI50,HL-60(TB) leukemia,12.8 µM
same,TGI,HL-60(TB) leukemia,65.6 µM
same,TGI,SK-OV-3 ovarian,> 84.1 µM
same,TGI,SNB-75 CNS,70.6 µM
same,TGI,EKVX NSCLC,65.9 µM
same,TGI,HCT-116 colon,53.3 µM
same,TGI,OVCAR-8 ovarian,> 53.6 µM
same,TGI,A498 renal,> 100 µM
same,TGI,NCI-H460 lung,80.4 µM
same,TGI,SK-MEL-5 melanoma,38.6 µM
same,GI50,NCI-H226 lung,29.6 µM
same,TGI,NCI-H226 lung,> 100 µM
same,TGI,UACC-257 melanoma,62.1 µM
same,TGI,SW-620 colon,40 µM
same,TGI,HT29 colon,67.6 µM
same,GI50,NCI-H522 lung,1.53 µM
same,TGI,NCI-H522 lung,3.44 µM
same,GI50,HOP-92 NSCLC,10 µM
same,TGI,HOP-92 NSCLC,59.5 µM
same,TGI,SK-MEL-2 melanoma,71.7 µM
same,TGI,TK-10 renal,> 100 µM
same,GI50,NCI-H23 lung,24.2 µM
same,TGI,NCI-H23 lung,> 69.6 µM
same,TGI,RXF 393 renal,97.5 µM
same,GI50,U251 CNS,14 µM
same,TGI,U251 CNS,28.5 µM
same,TGI,A549 NSCLC,> 100 µM
same,TGI,NCI/ADR-RES ovarian,> 86.7 µM
same,TGI,OVCAR-3 ovarian,58.4 µM
same,TGI,T-47D breast,73.2 µM
same,TGI,HCC-2998 colon,> 100 µM
same,TGI,SN12C renal,39.4 µM
same,TGI,MCF7 breast,44.4 µM
same,TGI,SR leukemia,31 µM
same,GI50,LOX IMVI melanoma,19.1 µM
same,TGI,LOX IMVI melanoma,40 µM
same,TGI,CAKI-1 renal,61.5 µM
